According to patent publication US20030180396A1, “Method of effecting phosphorylation in eucaryotic cells using thiamine triphosphate” (INSTITUT PASTEUR, priority 1999, published 2003):
“Also recorded” adds a separate entry of the source. Like-named read-outs stand apart in the source and are kept apart here.

Tests used:
[1] = system: TTP-dependent kinase(s) (TTP-kinase, TTP-43K-kinase); test: TTP-dependent phosphorylation of 43K rapsyn by endogenous kinase(s) in nAChR-rich postsynaptic membranes; type: biochemical, Torpedo marmorata; details: for IC50: FIG. 3A, preincubation with cold triphosphate, read-out: IC50, inhibition of TTP-dependent phosphorylation of 43K rapsyn
Experimental: (§1) nAChR-rich postsynaptic membranes (nAChR-membranes) were prepared from electric organs excised from freshly killed Torpedo marmorata (T.m.) (Biologie Marine, Arcachon) (3, 16).
(§2) [γ-^32P]-TTP (^32P-TTP) was synthesized (27). nAChR-membranes were phosphorylated with (7-8000 Ci/mol) ^32P-TTP or ^32P-ATP in 50 mM Tris-HCl pH 7.5, 5-15 mM MgCl2, 0.08% CHAPS, inhibitors of proteases at 4°-20° C. for 60-90 minutes. […] Coomassie blue staining was performed when necessary. Where specified, nAChR-membranes were treated with 5-20 mM diethylpyrocarbonate (DEPC.) (28) in 50 mM Na phosphate buffer pH 6.0 and 7.4 (20 min, 16° C.), prior to incubation with ^32P-TTP.
A purified extract containing the kinase responsible for the TTP dependent phosphorylation of histidine residues on rapsyn, is preincubated with increasing concentration of products inhibiting the enzymatic activity of said kinase (FIG. 3A).

[2] = system: endogenous protein kinase A (PKA); test: ATP-dependent phosphorylation of 43K rapsyn in nAChR-rich postsynaptic membranes; type: biochemical, Torpedo marmorata
Experimental: as §1, §2

[3] = target: T1, Nucleoside diphosphate kinase (NDPK) (Dictyostelium discoideum, UniProt P22887); test: Phosphorylation of NDPK with 32P-ATP or 32P-TTP as phosphodonor; type: biochemical; details: data not shown
T1 sequence (P22887 1-155): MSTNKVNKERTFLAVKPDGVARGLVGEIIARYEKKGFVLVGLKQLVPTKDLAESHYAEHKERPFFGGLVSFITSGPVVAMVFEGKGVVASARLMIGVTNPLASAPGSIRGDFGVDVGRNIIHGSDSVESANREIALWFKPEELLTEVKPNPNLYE
Experimental: NDPK is a highly conserved enzyme which plays a key role in growth and metastasis control (47). As the enzyme autophosphorylates histidine and presents a broad specificity, phosphorylation was assayed with TTP.

[4] = Chemical stability of the phosphate links of phosphorylated 43K rapsyn (TCA / KOH treatment); type: physicochemical, Torpedo marmorata; details: for P-aa stability (base): PVDF blot + base; for P-aa stability (acid): SDS-PAGE gel + acid
Experimental: For acid treatment, SDS-PAGE gels containing ^32P-ATP- or ^32P-TTP-treated membranes were cut and incubated with Tris buffer or 16% TCA at 90° C. (29, 30), washed, and analyzed. Equivalent amounts of 43K rapsyn were ensured by Coomassie blue staining. For base treatment, ^32P-labeled membranes were resolved by SDS-PAGE, electroblotted on polyvinylidene difluoride membrane (PVDF). Blots were dried at 55° C. to minimize protein loss, wet in methanol, washed with H2O, cut and incubated in water or 1N KOH at 46° C. and analyzed.

Nc1ncnc2c1nc(Sc1ccc(Cl)cc1)n2[C@@H]1O[C@@H]2COP(=O)([O-])O[C@H]2[C@H]1O.[Na+] [8-CPT-cAMP, Adenosine 3′-5′-cyclic monophosphate, 8-(4-Chlorophenylthio)-sodium salt]
effect on TTP-dependent phosphorylation of 43K rapsyn / TTP-kinase activity (in words) [1]: did not drastically alter

Nc1ncnc2c1ncn2[C@@H]1O[C@H](COP(=O)(O)OP(=O)(O)OP(=O)(O)O)[C@@H](O)[C@H]1O [ATP, adenosine triphosphate]
effect on 32P-ATP-dependent 43K rapsyn phosphorylation (in words) [2]: specifically inhibited
effect on TTP-dependent phosphorylation of 43K rapsyn / TTP-kinase activity (in words) [1]: specifically inhibited
IC50 [1]: ~500 µM

Nc1ccn([C@@H]2O[C@H](COP(=O)(O)OP(=O)(O)OP(=O)(O)O)[C@@H](O)[C@H]2O)c(=O)n1 [CTP]
effect on TTP-dependent phosphorylation of 43K rapsyn / TTP-kinase activity (in words) [1]: inhibits poorly

CCOC(=O)OC(=O)OCC [DEPC, diethylpyrocarbonate]
43K rapsyn phosphorylation, % 32P ([1]; membranes pretreated with 5-20 mM DEPC, versus 100±19% in mock membranes): 20±2%

O[C@@H](CS)[C@@H](O)CS [DTT]
effect on TTP-dependent phosphorylation of 43K rapsyn / TTP-kinase activity (in words) [1]: partially inhibited
% inhibition of TTP-kinase activity ([1]; 10 mM): 30-40%

CN(C)CCCn1cc(C2=C(c3c[nH]c4ccccc34)C(=O)NC2=O)c2ccccc21 [GFX, bisindolylmaleimide I]
effect on TTP-dependent phosphorylation of 43K rapsyn / TTP-kinase activity (in words) [1]: did not drastically alter

Nc1nc2c(ncn2[C@@H]2O[C@H](COP(=O)(O)OP(=O)(O)OP(=O)(O)O)[C@@H](O)[C@H]2O)c(=O)[nH]1 [GTP]
IC50 [1]: ~1000 µM

CC1CNCCN1S(=O)(=O)c1cccc2cnccc12 (centres unmarked) [H7]
effect on TTP-dependent phosphorylation of 43K rapsyn / TTP-kinase activity (in words) [1]: did not drastically alter

O=S(=O)(NCCNC/C=C/c1ccc(Br)cc1)c1cccc2cnccc12 [H89]
effect on TTP-dependent phosphorylation of 43K rapsyn / TTP-kinase activity (in words) [1]: did not drastically alter

CN([C@@H](Cc1ccc(OS(=O)(=O)c2cccc3cnccc23)cc1)C(=O)N1CCN(c2ccccc2)CC1)S(=O)(=O)c1cccc2cnccc12 [KN62]
effect on TTP-dependent phosphorylation of 43K rapsyn / TTP-kinase activity (in words) [1]: did not drastically alter

CCCCCCOC(=O)[C@]1(O)C[C@@H]2O[C@@]1(C)n1c3ccccc3c3c4c(c5c6ccccc6n2c5c31)C(=O)NC4 [KT5720]
effect on TTP-dependent phosphorylation of 43K rapsyn / TTP-kinase activity (in words) [1]: did not drastically alter

O=S(=O)(c1cccc2c(I)cccc12)N1CCCNCC1 [ML7]
effect on TTP-dependent phosphorylation of 43K rapsyn / TTP-kinase activity (in words) [1]: did not drastically alter

[Mg+2] [Mg^2+]
effect on TTP-dependent phosphorylation of 43K rapsyn / TTP-kinase activity (in words) [1]: enhanced

CCCCCCCCCCCCCC(=O)O[C@@H]1[C@@H](C)[C@@]2(O)[C@@H](C=C(CO)C[C@]3(O)C(=O)C(C)=C[C@@H]23)[C@@H]2C(C)(C)[C@]12OC(C)=O [TPA, phorbol-12-myristate-13-acetate]
effect on TTP-dependent phosphorylation of 43K rapsyn / TTP-kinase activity (in words) [1]: did not drastically alter

[Zn+2] [Zn^2+]
effect on TTP-dependent phosphorylation of 43K rapsyn / TTP-kinase activity (in words) [1]: inhibited; also recorded: prevented
% inhibition of TTP-dependent phosphorylation of 43K rapsyn ([1]; 0.5-3 mM Zn2+, 8 μM 32P-TTP, Mg2+ independent): ~70%

Nc1ncnc2c1ncn2[C@@H]1O[C@H](COP(=O)(O)OP(=O)(O)O[32P](=O)(O)O)[C@@H](O)[C@H]1O [^32P-ATP, [γ-^32P]-ATP, reference compound]
concentration saturating 43K rapsyn phosphorylation ([2]; not yet saturated): > 200 µM
phosphorylation of NDPK by the phosphodonor [3]: strongly phosphorylated

Cc1ncc(C[n+]2csc(CCOP(=O)(O)OP(=O)(O)O[32P](=O)([O-])O)c2C)c(N)n1 [^32P-TTP, [γ-^32P]-TTP]
concentration saturating 43K rapsyn phosphorylation ([1]; FIG. 3C): 25 to 50 µM
phosphorylation of NDPK by the phosphodonor [3]: not

COc1ccc(C[C@H]2NC[C@H](O)[C@H]2OC(C)=O)cc1 [anisomycin]
effect on TTP-dependent phosphorylation of 43K rapsyn / TTP-kinase activity (in words) [1]: did not drastically alter

Nc1nc2c(ncn2[C@@H]2O[C@@H]3COP(=O)(O)O[C@H]3[C@H]2O)c(=O)[nH]1 [cGMP]
effect on TTP-dependent phosphorylation of 43K rapsyn / TTP-kinase activity (in words) [1]: did not drastically alter

Clc1ccc(C(c2ccc(Cl)cc2)n2cc[n+](CC(OCc3ccc(Cl)cc3Cl)c3ccc(Cl)cc3Cl)c2)cc1 (centres unmarked) [calmidazolium]
effect on TTP-dependent phosphorylation of 43K rapsyn / TTP-kinase activity (in words) [1]: did not drastically alter

O=c1c(-c2ccc(O)cc2)coc2cc(O)cc(O)c12 [genisterin, genistein]
effect on TTP-dependent phosphorylation of 43K rapsyn / TTP-kinase activity (in words) [1]: did not drastically alter

CN[C@@H]1C[C@H]2O[C@@](C)([C@@H]1OC)n1c3ccccc3c3c4c(c5c6ccccc6n2c5c31)C(=O)NC4 [staurosporine]
effect on TTP-dependent phosphorylation of 43K rapsyn / TTP-kinase activity (in words) [1]: did not drastically alter

TNF-α
effect on TTP-dependent phosphorylation of 43K rapsyn / TTP-kinase activity (in words) [1]: did not drastically alter

calphostin
effect on TTP-dependent phosphorylation of 43K rapsyn / TTP-kinase activity (in words) [1]: did not drastically alter

B1: 43K-rapsyn/ATP: 43K rapsyn phosphorylated with ^32P-ATP (protein, UniProt Q13702 2-412, looked up)
43 kDa receptor-associated …: GQDQTKQQIEKGLQLYQSNQTEKALQVWTKVLEKSSDLMGRFRVLGCLVTAHSEMGRYKEMLKFAVVQIDTARELEDADFLLESYLNLARSNEKLCEFHKTISYCKTCLGLPGTRAGAQLGGQVSLSMGNAFLGLSVFQKALESFEKALRYAHNNDDAMLECRVCCSLGSFYAQVKDYEKALFFPCKAAELVNNYGKGWSLKYRAMSQYHMAVAYRLLGRLGSAMECCEESMKIALQHGDRPLQALCLLCFADIHRSRGDLETAFPRYDSAMSIMTEIGNRLGQVQALLGVAKCWVARKALDKALDAIERAQDLAEEVGNKLSQLKLHCLSESIYRSKGLQRELRAHVVRFHECVEETELYCGLCGESIGEKNSRLQALPCSHIFHLRCLQNNGTRSCPNCRRSSMKPGFV
modifications: 32P-phosphorylated (ATP)
notes: 43K rapsyn phosphorylated with ^32P-ATP
P-aa stability (base) [4]: base-labile
P-aa stability (base) ([4]; listed as ATP-^32P-43K rapsyn): alkaline labile
% 32P remaining ([4]; PVDF blot, 1 N KOH 46° C. 40 min, relative to control): 41 ± 1%
% 32P remaining ([4]; PVDF blot, 1 N KOH 46° C. 120 min, relative to control): 18 ± 2%
% 32P remaining ([4]; PVDF blot, 1 N KOH 46° C. 120 min, relative to control, listed as ATP-^32P-43K rapsyn): 18±2%
P-aa stability (acid) [4]: acid-stable
P-aa stability (acid) ([4]; listed as ATP-^32P-43K rapsyn): acid stable
% 32P remaining ([4]; SDS-PAGE gel, 16% TCA, 90° C. 5 min, relative to control): 79 ± 5%
% 32P remaining ([4]; SDS-PAGE gel, 16% TCA, 90° C. 5 min, relative to control, listed as ATP-^32P-43K rapsyn): 79±5%
% 32P remaining ([4]; SDS-PAGE gel, 16% TCA, 90° C. 10 min, relative to control): 49 ± 9%
% 32P remaining ([4]; SDS-PAGE gel, 16% TCA, 90° C. 10 min, relative to control, listed as ATP-^32P-43K rapsyn): 49±9%
Paa/pH-stability ([4]; putative Paa listed in both acid- and base-stability analysis (ref. 45)): P-Ser and/or P-Thr

B2: 43K-rapsyn/TTP: 43K rapsyn phosphorylated with ^32P-TTP (protein, UniProt Q13702 2-412, looked up)
43 kDa receptor-associated …: GQDQTKQQIEKGLQLYQSNQTEKALQVWTKVLEKSSDLMGRFRVLGCLVTAHSEMGRYKEMLKFAVVQIDTARELEDADFLLESYLNLARSNEKLCEFHKTISYCKTCLGLPGTRAGAQLGGQVSLSMGNAFLGLSVFQKALESFEKALRYAHNNDDAMLECRVCCSLGSFYAQVKDYEKALFFPCKAAELVNNYGKGWSLKYRAMSQYHMAVAYRLLGRLGSAMECCEESMKIALQHGDRPLQALCLLCFADIHRSRGDLETAFPRYDSAMSIMTEIGNRLGQVQALLGVAKCWVARKALDKALDAIERAQDLAEEVGNKLSQLKLHCLSESIYRSKGLQRELRAHVVRFHECVEETELYCGLCGESIGEKNSRLQALPCSHIFHLRCLQNNGTRSCPNCRRSSMKPGFV
modifications: 32P-phosphorylated (TTP)
notes: 43K rapsyn phosphorylated with ^32P-TTP
Paa/pH-stability [4]: P-His and/or P-Lys
% 32P remaining ([4]; 40 min): 96 ± 3%
